Data as given in patent publication US11834430B2, “Compounds useful as inhibitors of isoprenylcysteine carboxyl methyltransferase” (AGENCY FOR SCIENCE, TECHNOLOGY AND RESEARCH, priority 2017, dated 2023).
Where “and” joins values, the source holds several entries; their conditions need not be identical. Equal entries are not always repeated.

Target: human ICMT (Homo sapiens (Human), UniProt O60725)
Experiment: ICMT biochemical assay (Methyltransferase-Glo)
Conditions: ICMT membrane extract from Sf-9 cells; 30 min preincubation, 90 min reaction
Procedure: Recombinant human ICMT was prepared by infection of Sf9 cells with a recombinant baculovirus containing the entire open reading frame of the human ICMT cDNA.
Cells producing ICMT were harvested 66 hours post-infection. The cells are homogenized and resuspended in 5 mM NaHPO4 (pH 7.0), and a cocktail of protease inhibitors. The membrane was pelleted, after removal of nuclei and debris, at 100,000×g for 1 hour. Membranes were resuspended in 5 mM NaHPO4 (pH 7.0) with 5 mM EDTA at 10-12 mg/ml. The suspension was stored at −80° C. in multiple aliquots.
An ICMT enzymatic assay was developed using Promega's Methyltransferase-GloTMreagents. In the assay, ICMT catalyzes the methylation of the N-Acetyl-S-farnesyl-L-cysteine by transferring a methyl group from SAM to the farnesylated cysteine and further converts the SAM to SAH. The methyltransferase activity is measured based on the amount of SAH produced from the reaction through the use of coupling enzymes that convert the SAH to ATP. The MTase-Glo detection solution then catalyzes the formation of light from ATP.
A final concentration of 2.0 μM and 20 μM of SAM and peptide were added and further incubated for 90 minutes at room temperature before adding the MTase Glo and detection reagent. Reaction signals were detected using microplate readers on luminescent mode (Satire Tecan). The IC50 was determined by nonlinear regression, using GraphPad Prism version, 5.03.

human ICMT, sequence (O60725 whole entry): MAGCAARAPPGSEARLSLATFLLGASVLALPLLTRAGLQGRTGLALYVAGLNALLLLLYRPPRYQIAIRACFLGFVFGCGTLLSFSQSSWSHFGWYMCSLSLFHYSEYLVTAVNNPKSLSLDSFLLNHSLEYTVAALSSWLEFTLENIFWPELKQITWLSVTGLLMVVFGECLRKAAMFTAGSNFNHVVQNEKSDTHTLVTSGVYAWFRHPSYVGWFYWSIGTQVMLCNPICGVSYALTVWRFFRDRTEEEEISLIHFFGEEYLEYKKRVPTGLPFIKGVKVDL

| IC50 | SMILES |
| --- | --- |
| 560 nM | N#Cc1ccc(OCCOc2cccc(-n3cncn3)c2)cc1 [Compound 1, 4-(2-(3-(1H-1,2,4-triazol-1-yl)phenoxy)ethoxy)benzonitrile] |
| 630 nM and 490 nM | N#Cc1ccc(OCCOc2cccc(-c3cncs3)c2)cc1 [Compound 3, 4-(2-(3-(thiazol-5-yl)phenoxy)ethoxy)benzonitrile] |
| 260 nM and 220 nM and 390 nM | Cc1nccn1-c1cccc(OCCOc2ccc(C#N)nc2)c1 [Compound 4, 5-(2-(3-(2-methyl-1H-imidazol-1-yl)phenoxy)ethoxy)picolinonitrile] |
| 2 nM and 1 nM and 2.4 nM | Cc1nccn1-c1cccc(OCCOc2ccc(C#N)cc2F)c1 [Compound 6, 3-fluoro-4-(2-(3-(2-methyl-1H-imidazol-1-yl)phenoxy)ethoxy)benzonitrile] |
| 3 nM | Cn1nccc1-c1cccc(OCCOc2ccc(C#N)cc2Cl)c1 [Compound 7, 3-chloro-4-(2-(3-(1-methyl-1H-pyrazol-5-yl)phenoxy)ethoxy)benzonitrile] |
| 0.2 nM and 0.36 nM | COc1cc(C#N)ccc1OCCOc1cccc(-n2ccnc2C)c1 [Compound 8, 3-methoxy-4-(2-(3-(2-methyl-1H-imidazol-1-yl)phenoxy)ethoxy)benzonitrile] |
| 0.1 nM and 0.18 nM | N#Cc1ccc(OCCOc2cccc(-n3ccnc3C3CC3)c2)c(Cl)c1 [Compound 9, 3-chloro-4-(2-(3-(2-cyclopropyl-1H-imidazol-1-yl)phenoxy)ethoxy)benzonitrile] |
| 80 nM | Cc1nccn1-c1cccc(OCCOc2ccc(C#N)cn2)c1 [Compound 10, 6-(2-(3-(2-methyl-1H-imidazol-1-yl)phenoxy)ethoxy)nicotinonitrile] |
| 20 nM | N#Cc1ccc(OCCOc2cccc(-c3cncs3)c2)c(Cl)c1 [Compound 11, 3-chloro-4-(2-(3-(thiazol-5-yl)phenoxy)ethoxy)benzonitrile] |
| 210 nM | N#Cc1ccc(OCCOc2cccc(-c3cncs3)c2)c(F)c1 [Compound 12, 3-fluoro-4-(2-(3-(thiazol-5-yl)phenoxy)ethoxy)benzonitrile] |
| 11 nM | Cc1ccc(OCCOc2cccc(-n3ccnc3C)c2)c(C#N)c1 [Compound 13, 5-methyl-2-(2-(3-(2-methyl-1H-imidazol-1-yl)phenoxy)ethoxy)benzonitrile] |
| 15 nM | Cn1nccc1-c1cccc(OCCOc2ccc(C#N)cc2F)c1 [Compound 14, 3-fluoro-4-(2-(3-(1-methyl-1H-pyrazol-5-yl)phenoxy)ethoxy)benzonitrile] |
| 1.1 nM and 0.9 nM | COc1cc(C#N)ccc1OCCOc1cccc(-c2ccnn2C)c1 [Compound 15, 3-methoxy-4-(2-(3-(1-methyl-1H-pyrazol-5-yl)phenoxy)ethoxy)benzonitrile] |
| 8 nM and 11 nM | COc1cc(C#N)ccc1OCCOc1cccc(-c2cncs2)c1 [Compound 16, 3-methoxy-4-(2-(3-(thiazol-5-yl)phenoxy)ethoxy)benzonitrile] |
| 16 nM | N#Cc1ccc(OCCOc2cccc(-n3ccnc3C3CC3)c2)c(F)c1 [Compound 17, 4-(2-(3-(2-cyclopropyl-1H-imidazol-1-yl)phenoxy)ethoxy)-3-fluorobenzonitrile] |
| 3 nM | Cc1ccc(OCCOc2cccc(-c3ccnn3C)c2)c(C#N)c1 [Compound 18, 5-methyl-2-(2-(3-(1-methyl-1H-pyrazol-5-yl)phenoxy)ethoxy)benzonitrile] |
| 4.5 nM | COc1cc(C#N)ccc1OCCOc1cccc(-n2ccnc2C2CC2)c1 [Compound 19, 4-(2-(3-(2-cyclopropyl-1H-imidazol-1-yl)phenoxy)ethoxy)-3-methoxybenzonitrile] |
| 0.17 nM and 0.16 nM | N#Cc1ccc(OCCOc2cccc(-n3ccnc3C3CC3)c2)cc1 [Compound 20, 4-(2-(3-(2-cyclopropyl-1H-imidazol-1-yl)phenoxy)ethoxy)benzonitrile] |
| 298 nM | N#Cc1ccc(OCCOc2cccc(-n3cnnc3)c2)cc1 [Compound 21, 4-(2-(3-(4H-1,2,4-triazol-4-yl)phenoxy)ethoxy)benzonitrile] |
| 3 nM | Cc1nccn1-c1cccc(OC(C)COc2ccc(C#N)cc2Cl)c1 (centres unmarked) [Compound 22, 3-chloro-4-(2-(3-(2-methyl-1H-imidazol-1-yl)phenoxy)propoxy)benzonitrile] |
